Data published in patent US20100267561A1, “HERBICIDAL PYRIDAZINONE DERIVATIVES” (priority 2007, published 2010).

Legend:
Type in all cases: in vivo
[1] = test system: barnyardgrass (Echinochloa crus-galli); experiment: Test A pre-/postemergence plant response
From the text: (§1) Seeds of species selected from barnyardgrass (Echinochloa crus-galli), large crabgrass (Digitaria sanguinalis), giant foxtail (Setaria faberi), blackgrass (Alopecurus myosuroides), canarygrass (Phalaris minor), morningglory (Ipomoea coccinea), pigweed (Amaranthus retroflexus), velvetleaf (Abutilon theophrasti), wheat (Triticum aestivum), and corn (Zea mays) were planted into a blend of loam soil and sand and treated preemergence with a directed soil spray using test chemicals formulated in a non-phytotoxic solvent mixture which included a surfactant. At the same time these species were also treated with postemergence applications of test chemicals formulated in the same manner.
(§2) Plants ranged in height from 2 to 10 cm and were in the one- to two-leaf stage for the postemergence treatment. Treated plants and untreated controls were maintained in a greenhouse for approximately 10 days, after which time all treated plants were compared to untreated controls and visually evaluated for injury. Plant response ratings, summarized in Table A, are based on a 0 to 100 scale where 0 is no effect and 100 is complete control. A dash (-) response means no test results.

corn (Zea mays) = experiment: Test A pre-/postemergence plant response
From the text: as §1, §2

[2] = test system: giant foxtail (Setaria faberi); experiment: Test A pre-/postemergence plant response
From the text: as §1, §2

[3] = test system: large crabgrass (Digitaria sanguinalis); experiment: Test A pre-/postemergence plant response
From the text: as §1, §2

[4] = test system: morningglory (Ipomoea coccinea); experiment: Test A pre-/postemergence plant response
From the text: as §1, §2

[5] = test system: pigweed (Amaranthus retroflexus); experiment: Test A pre-/postemergence plant response
From the text: as §1, §2

[6] = test system: velvetleaf (Abutilon theophrasti); experiment: Test A pre-/postemergence plant response
From the text: as §1, §2

[7] = test system: wheat (Triticum aestivum); experiment: Test A pre-/postemergence plant response
From the text: as §1, §2

[8] = test system: barnyardgrass (Echinochloa crus-galli); experiment: Test B flooded paddy test plant response
How it was run: (§3)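 Compounds were added directly to paddy water over 2-leaf-stage plants in pots flooded 3 cm above soil, water depth maintained. Visual injury scored against controls after 13 to 15 days in greenhouse, 0 (none) to 100 (complete control); dash indicates no result.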

[9] = test system: ducksalad (Heteranthera limosa); experiment: Test B flooded paddy test plant response
How it was run: as §3

rice (Oryza sativa) = experiment: Test B flooded paddy test plant response
How it was run: as §3

[10] = test system: umbrella sedge (Cyperus difformis); experiment: Test B flooded paddy test plant response
How it was run: as §3

[11] = test system: blackgrass (Alopecurus myosuroides); experiment: Test A pre-/postemergence plant response
From the text: as §1, §2

[12] = test system: canarygrass (Phalaris minor); experiment: Test A pre-/postemergence plant response
From the text: as §1, §2

[13] = Postemergence, 31 g ai/ha, 0 to 100 scale (0 no effect, 100 complete control)
[14] = Postemergence, 125 g ai/ha, 0 to 100 scale, 0 no effect, 100 complete control
[15] = Preemergence, 31 g ai/ha, 0 to 100 scale, 0 is no effect, 100 is complete control
[16] = Preemergence, 125 g ai/ha, 0 to 100 scale (0 no effect, 100 complete control)
[17] = Flood (flooded paddy test), 62 g ai/ha, scale 0 to 100, 0 no effect, 100 complete control
[18] = Flood (flooded paddy test), 125 g ai/ha, scale 0 to 100, 0 no effect, 100 complete control
[19] = Flood (flooded paddy test), 250 g ai/ha, scale 0 to 100, 0 no effect, 100 complete control
[20] = Flood, 31 g ai/ha, scale 0 to 100

SMILES: CCc1cc(-c2ccc(Cl)s2)nn1-c1c(O)cnn(C)c1=O [Compound 63]
- Plant response rating, Barnyardgrass [1, 13]: 0
- Plant response rating, Barnyardgrass [1, 14]: 20
- Plant response rating, Barnyardgrass [1, 15]: 0
- Plant response rating, Barnyardgrass [1, 16]: 10
- Plant response rating, Corn (corn (Zea mays); [13]): 0
- Plant response rating, Corn (corn (Zea mays); [14]): 30
- Plant response rating, Corn (corn (Zea mays); [15]): 0
- Plant response rating, Corn (corn (Zea mays); [16]): 0
- Plant response rating, Foxtail, Giant [2, 13]: 0
- Plant response rating, Foxtail, Giant [2, 14]: 60
- Plant response rating, Foxtail, Giant [2, 15]: 0
- Plant response rating, Foxtail, Giant [2, 16]: 0
- Plant response rating, Crabgrass, Large [3, 13]: 10
- Plant response rating, Crabgrass, Large [3, 14]: 10
- Plant response rating, Crabgrass, Large [3, 15]: 0
- Plant response rating, Crabgrass, Large [3, 16]: 0
- Plant response rating, Morningglory [4, 13]: 0
- Plant response rating, Morningglory [4, 14]: 0
- Plant response rating, Morningglory [4, 15]: 0
- Plant response rating, Morningglory [4, 16]: 0
- Plant response rating, Pigweed [5, 13]: 0
- Plant response rating, Pigweed [5, 14]: 0
- Plant response rating, Pigweed [5, 15]: 0
- Plant response rating, Pigweed [5, 16]: 0
- Plant response rating, Velvetleaf [6, 13]: 0
- Plant response rating, Velvetleaf [6, 14]: 0
- Plant response rating, Velvetleaf [6, 15]: 0
- Plant response rating, Velvetleaf [6, 16]: 0
- Plant response rating, Wheat [7, 13]: 0
- Plant response rating, Wheat [7, 14]: 20
- Plant response rating, Wheat [7, 15]: 0
- Plant response rating, Wheat [7, 16]: 0
- Plant response rating, Barnyardgrass [8, 17]: 0
- Plant response rating, Barnyardgrass [8, 18]: 0
- Plant response rating, Barnyardgrass [8, 19]: 0
- Plant response rating, Barnyardgrass [8, 20]: 0
- Plant response rating, Ducksalad [9, 17]: 0
- Plant response rating, Ducksalad [9, 18]: 0
- Plant response rating, Ducksalad [9, 19]: 0
- Plant response rating, Ducksalad [9, 20]: 0
- Plant response rating, Rice (rice (Oryza sativa); [17]): 0
- Plant response rating, Rice (rice (Oryza sativa); [18]): 0
- Plant response rating, Rice (rice (Oryza sativa); [19]): 0
- Plant response rating, Rice (rice (Oryza sativa); [20]): 0
- Plant response rating, Sedge, Umbrella [10, 17]: 0
- Plant response rating, Sedge, Umbrella [10, 18]: 0
- Plant response rating, Sedge, Umbrella [10, 19]: 0
- Plant response rating, Sedge, Umbrella [10, 20]: 0

SMILES: Cc1c(Br)c(-c2ccc(Br)cc2)nn1-c1c(O)cnn(C)c1=O [Compound 70]
- Plant response rating, Barnyardgrass [1, 13]: 0
- Plant response rating, Barnyardgrass [1, 14]: 50
- Plant response rating, Barnyardgrass [1, 15]: 0
- Plant response rating, Barnyardgrass [1, 16]: 0
- Plant response rating, Blackgrass [11, 13]: 0
- Plant response rating, Blackgrass [11, 14]: 10
- Plant response rating, Blackgrass [11, 15]: 0
- Plant response rating, Blackgrass [11, 16]: 0
- Plant response rating, Canarygrass [12, 13]: 0
- Plant response rating, Canarygrass [12, 14]: 0
- Plant response rating, Canarygrass [12, 15]: 0
- Plant response rating, Canarygrass [12, 16]: 0
- Plant response rating, Corn (corn (Zea mays); [13]): 0
- Plant response rating, Corn (corn (Zea mays); [14]): 20
- Plant response rating, Corn (corn (Zea mays); [15]): 0
- Plant response rating, Corn (corn (Zea mays); [16]): 0
- Plant response rating, Foxtail, Giant [2, 13]: 0
- Plant response rating, Foxtail, Giant [2, 14]: 0
- Plant response rating, Foxtail, Giant [2, 15]: 0
- Plant response rating, Foxtail, Giant [2, 16]: 0
- Plant response rating, Crabgrass, Large [3, 13]: 0
- Plant response rating, Crabgrass, Large [3, 14]: 0
- Plant response rating, Crabgrass, Large [3, 15]: 0
- Plant response rating, Crabgrass, Large [3, 16]: 0
- Plant response rating, Pigweed [5, 13]: 0
- Plant response rating, Pigweed [5, 14]: 0
- Plant response rating, Pigweed [5, 15]: 0
- Plant response rating, Pigweed [5, 16]: 0
- Plant response rating, Wheat [7, 13]: 0
- Plant response rating, Wheat [7, 14]: 0
- Plant response rating, Wheat [7, 15]: 0
- Plant response rating, Wheat [7, 16]: 0

SMILES: Cn1ncc(O)c(-c2nn(-c3ccc(C(F)(F)F)cc3)cc2Cl)c1=O [Compound 88]
- Plant response rating, Barnyardgrass [1, 13]: 10
- Plant response rating, Barnyardgrass [1, 14]: 90
- Plant response rating, Barnyardgrass [1, 15]: 0
- Plant response rating, Barnyardgrass [1, 16]: 90
- Plant response rating, Blackgrass [11, 13]: 10
- Plant response rating, Blackgrass [11, 14]: 70
- Plant response rating, Blackgrass [11, 15]: 40
- Plant response rating, Blackgrass [11, 16]: 80
- Plant response rating, Canarygrass [12, 13]: 30
- Plant response rating, Canarygrass [12, 14]: 70
- Plant response rating, Canarygrass [12, 15]: 0
- Plant response rating, Canarygrass [12, 16]: 70
- Plant response rating, Corn (corn (Zea mays); [13]): 0
- Plant response rating, Corn (corn (Zea mays); [14]): 50
- Plant response rating, Corn (corn (Zea mays); [15]): 0
- Plant response rating, Corn (corn (Zea mays); [16]): 20
- Plant response rating, Foxtail, Giant [2, 13]: 40
- Plant response rating, Foxtail, Giant [2, 14]: 90
- Plant response rating, Foxtail, Giant [2, 15]: 40
- Plant response rating, Foxtail, Giant [2, 16]: 90
- Plant response rating, Crabgrass, Large [3, 13]: 40
- Plant response rating, Crabgrass, Large [3, 14]: 90
- Plant response rating, Crabgrass, Large [3, 15]: 0
- Plant response rating, Crabgrass, Large [3, 16]: 90
- Plant response rating, Pigweed [5, 13]: 0
- Plant response rating, Pigweed [5, 14]: 0
- Plant response rating, Pigweed [5, 15]: 0
- Plant response rating, Pigweed [5, 16]: 0
- Plant response rating, Wheat [7, 13]: 20
- Plant response rating, Wheat [7, 14]: 60
- Plant response rating, Wheat [7, 15]: 0
- Plant response rating, Wheat [7, 16]: 40

SMILES: CCc1cc(-c2ccc(Br)cc2)nn1-c1c(O)c(OC)nn(C)c1=O [Compound 89]
- Plant response rating, Barnyardgrass [1, 13]: 100
- Plant response rating, Barnyardgrass [1, 14]: 100
- Plant response rating, Barnyardgrass [1, 15]: 30
- Plant response rating, Barnyardgrass [1, 16]: 100
- Plant response rating, Blackgrass [11, 13]: 100
- Plant response rating, Blackgrass [11, 14]: 100
- Plant response rating, Blackgrass [11, 15]: 90
- Plant response rating, Blackgrass [11, 16]: 100
- Plant response rating, Canarygrass [12, 13]: 100
- Plant response rating, Canarygrass [12, 14]: 100
- Plant response rating, Canarygrass [12, 15]: 50
- Plant response rating, Canarygrass [12, 16]: 100
- Plant response rating, Corn (corn (Zea mays); [13]): 100
- Plant response rating, Corn (corn (Zea mays); [14]): 100
- Plant response rating, Corn (corn (Zea mays); [15]): 50
- Plant response rating, Corn (corn (Zea mays); [16]): 70
- Plant response rating, Foxtail, Giant [2, 13]: 100
- Plant response rating, Foxtail, Giant [2, 14]: 100
- Plant response rating, Foxtail, Giant [2, 15]: 90
- Plant response rating, Foxtail, Giant [2, 16]: 100
- Plant response rating, Crabgrass, Large [3, 13]: 100
- Plant response rating, Crabgrass, Large [3, 14]: 100
- Plant response rating, Crabgrass, Large [3, 15]: 70
- Plant response rating, Crabgrass, Large [3, 16]: 100
- Plant response rating, Pigweed [5, 14]: 0
- Plant response rating, Pigweed [5, 15]: 0
- Plant response rating, Pigweed [5, 16]: 0
- Plant response rating, Wheat [7, 13]: 80
- Plant response rating, Wheat [7, 14]: 90
- Plant response rating, Wheat [7, 15]: 40
- Plant response rating, Wheat [7, 16]: 90
